Test results: patent US6461997B1, “Triazole sulfones having herbicidal activity” (Monsanto Technology LLC, priority 1999, dated 2002)

How the values were obtained:
[1] = system: SASKR (russian thistle); assay: Pre-plant incorporated (PPI) herbicidal activity, cool season; assay type: in vivo, Salsola kali; conditions: for PPI activity GR80, SASKR: pre-plant incorporated, lowest tested rate with 80% or greater inhibition, about 14 days; for Percent inhibition SASKR: weed, PPI application
Description: In another set of tests, the pre-plant incorporated (PPI) activity of compounds of this invention was evaluated on the same species as for the pre-emergence tests described above. In the PPI tests the following procedure, designed to simulate PPI application, was used.
(§1) A pre-prepared topsoil mixture (described above) was placed in a pot and compacted to a depth of 1.0 to 1.25 cm from the top of the pot. Seeds of each of several monocotyledonous and dicotyledonous annual plant species were placed on top of the soil. A sufficient quantity of soil to cover the seeds and level fill the pot was weighed into an open container. A known amount of the test compound was dissolved or suspended in an organic solvent and applied by spraying to this cover soil. The cover soil was thoroughly mixed to distribute the test compound throughout the cover soil, and was then applied as a cover layer over the seeds. Untreated soil was used as a cover layer for control pots. After treatment the plants were placed in a greenhouse where they received 0.64 cm of overhead irrigation. All subsequent watering consisted of a light overhead mist and/or subirrigation as needed for germination and growth. Tables 9 and 10 below relate to warm season plant species which were placed after pre-emergence treatment in a greenhouse with a 30/21° C. day/night temperature regime. Tables 11 and 12 below relates to cool season plant species placed after pre-emergence treatment in a greenhouse or growth chamber with an 18/13° C. day/night temperature regime. Only the compounds of Examples 1, 6, 8, 11, 13 and 15-20 were included in PPI tests.
(§2) Approximately 14 days after planting and treating, the plants were observed and herbicidal efficacy recorded as percent inhibition by comparison with untreated plants.

[2] = system: LOLMG (annual ryegrass); assay: Post-emergence herbicidal activity, cool season; assay type: in vivo, Lolium multiflorum; conditions: abraded plants sprayed at 300, 100, 30 and 10 g/ha; about 14 days after treatment
Description: (§3) In another set of tests, the post-emergence activity of compounds of this invention was evaluated on the cool season species listed above. The following procedure was used.
(§4) A pre-prepared topsoil mixture (described above) was placed in a pot and compacted to a depth of 1.0 to 1.25 cm from the top of the pot. Seeds of each of several monocotyledonous and dicotyledonous annual plant species were placed on top of the soil. The seeds were covered with a mixture of 50% topsoil and 50% Rediearth™ in sufficient quantity to level-fill the pots. The pots were then placed on a greenhouse bench and subirrigated as needed.
(§5) When plants growing from the seeds had emerged and reached a suitable growth stage for post-emergence treatment, typically 9 to 14 days after planting, above-ground parts of the plants were subjected to a pre-treatment involving abrasion to create greater opportunity for foliar uptake of subsequently applied compounds. Abrasion was performed using garnet 200w particles applied with a Sears Craftsman hand-held sandblaster operated at approximately 850 kPa (50 psig) pressure.
(§6) A known amount of each test compound dissolved or suspended in an appropriate organic solvent was diluted with a 50:50 mix of acetone and water and applied to the plants by spraying with a standard spray nozzle in a spray volume of […] at a spray pressure of 511 kPa (30 psig). Only the compounds of Examples 1, 8-15 and 17-22 were included in post-emergence tests. Application rates for these compounds were 300, 100, 30 and 10 g/ha. Control plants were abraded but not sprayed.
(§7) After treatment the plants were placed in a greenhouse with an 18/13° C. day/night temperature regime and were subsequently watered as needed for growth. Approximately 14 days after treatment, the plants were observed and herbicidal efficacy recorded as percent inhibition by comparison with control plants. GR80 values were assigned for each compound as described above for the pre-emergence tests.

[3] = system: soybean (GLYMX); assay: Selectivity test, PPI, warm season crop; assay type: in vivo, Glycine max; conditions: PPI application
Description: as §1, §2
Additional pre-emergence and PPI tests were conducted by the procedures described above, on warm and cool season weed species in the presence of crop species, to assess herbicidal selectivity. Crop species included in warm season tests were corn (Zea mays, ZEAMX), rice (Oryza sativa, ORYSA) and soybean (Glycine max, GLYMX). Crop species included in cool season tests were wheat (Triticum aestivum, TRZAW), barley (Hordeunm vulgare, HORVX) and oilseed rape (Brassica napus, BRSNS).
Tables 15 and 16 relate to pre-emergence and PPI tests respectively on warm season species. Table 17 relates to pre-emergence tests on cool season species.

[4] = system: AGSST (creeping bentgrass); assay: Post-emergence herbicidal activity, cool season; assay type: in vivo, Agrostis stolonifera; conditions: abraded plants sprayed at 300, 100, 30 and 10 g/ha; about 14 days after treatment
Description: as §3, §4, §5, §6, §7

[5] = system: POLCO (wild buckwheat); assay: Pre-emergence herbicidal activity, cool season; assay type: in vivo, Polygonum convolvulus; conditions: lowest tested rate with 80% or greater inhibition; rates 300, 100, 30, 10 g/ha; about 14 days
In short: (§8)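 GR80 values, pre-emergence, soil applied at 300, 100, 30, 10 g/ha. Warm regime 30/21 °C: PANMI, DIGSA. Cool regime 18/13 °C: ALOMY, POLCO. Rating ~14 d, % inhibition vs untreated.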

[6] = system: AEGCY (jointed goatgrass); assay: Post-emergence herbicidal activity, cool season; assay type: in vivo, Aegilops cylindrica; conditions: abraded plants sprayed at 300, 100, 30 and 10 g/ha; about 14 days after treatment
Description: as §3, §4, §5, §6, §7

[7] = system: VERPE (creeping speedwell); assay: Pre-emergence herbicidal activity, cool season; assay type: in vivo, Veronica persicaria; conditions: lowest tested rate with 80% or greater inhibition; rates 300, 100, 30, 10 g/ha; about 14 days
In short: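 GR80 values derive from percent inhibition relative to untreated plants, read roughly 14 days after sowing and pre-emergence soil-surface treatment (compound in 50:50 acetone/water; rates typically 10, 30, 100, 300 g/ha). Warm-season weeds grew at 30/21° C day/night, cool-season ones at 18/13° C; an asterisk marks activity without reaching 80% at the highest rate.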

[8] = system: DIGSA (large crabgrass); assay: Pre-emergence herbicidal activity, warm season; assay type: in vivo, Digitaria sanguinalis; conditions: for Pre-emergence activity (GR80) DIGSA: GR80 = lowest tested rate (300, 100, 30, 10 g/ha) with 80% or greater inhibition, approx. 14 days after treating, 30/21° C.
In short: as §8

CCN(CC)C(=O)n1cnc(S(=O)(=O)C(F)(F)SCC(=O)OC)n1 [Example 11]
PPI activity GR80, SASKR [1]: 100 g/ha | Percent inhibition SASKR ([1]; 10 g/ha): 0% | Percent inhibition SASKR ([1]; 30 g/ha): 20% | Percent inhibition SASKR ([1]; 300 g/ha): 30% | Percent inhibition SASKR ([1]; 900 g/ha): 65% | Post-emergence activity GR80, LOLMG [2]: [empty] | Percent inhibition GLYMX ([3]; 10 g/ha): 0% | Percent inhibition GLYMX ([3]; 30 g/ha): 0% | Percent inhibition GLYMX ([3]; 100 g/ha): 0% | Percent inhibition GLYMX ([3]; 300 g/ha): 10% | Percent inhibition GLYMX ([3]; 900 g/ha): 30% | Post-emergence activity GR80, AGSST [4]: [empty] | Pre-emergence activity GR80, POLCO [5]: [empty] | Post-emergence activity GR80, AEGCY [6]: [empty] | Pre-emergence activity GR80, VERPE [7]: 100 g/ha

CCN(CC)C(=O)n1cnc(S(=O)(=O)C(F)F)n1 [Example 15, 1-(N,N-diethylcarbamoyl)-3-(difluoromethylsulfonyl)-1,2,4-triazole]
PPI activity GR80, SASKR [1]: 100 g/ha | inhibition at 10 g/ha ([8]; Digitaria sanguinalis, pre-emergence application, 10 g/ha, read-out: Percent inhibition, weed DIGSA): 70% | inhibition at 30 g/ha ([8]; Digitaria sanguinalis, pre-emergence application, 30 g/ha, read-out: Percent inhibition, weed DIGSA): 40% | inhibition at 100 g/ha ([8]; Digitaria sanguinalis, pre-emergence application, 100 g/ha, read-out: Percent inhibition, weed DIGSA): 80% | inhibition at 300 g/ha ([8]; Digitaria sanguinalis, pre-emergence application, 300 g/ha, read-out: Percent inhibition, weed DIGSA): 100% | inhibition at 900 g/ha ([8]; Digitaria sanguinalis, pre-emergence application, 900 g/ha, read-out: Percent inhibition, weed DIGSA): 100% | Pre-emergence activity (GR80) DIGSA [8]: 30 g/ha | Post-emergence activity GR80, LOLMG [2]: [empty] | inhibition at 10 g/ha ([3]; Glycine max, 10 g/ha, read-out: Percent inhibition GLYMX): 0% | inhibition at 30 g/ha ([3]; Glycine max, 30 g/ha, read-out: Percent inhibition GLYMX): 0% | inhibition at 100 g/ha ([3]; Glycine max, 100 g/ha, read-out: Percent inhibition GLYMX): 0% | inhibition at 300 g/ha ([3]; Glycine max, 300 g/ha, read-out: Percent inhibition GLYMX): 15% | inhibition at 900 g/ha ([3]; Glycine max, 900 g/ha, read-out: Percent inhibition GLYMX): 65% | Post-emergence activity GR80, AGSST [4]: [empty] | Post-emergence activity GR80, AEGCY [6]: [empty]

CCN(CC)C(=O)n1cnc(S(=O)(=O)C(F)(F)C(=O)c2ccccc2)n1 [Example 6]
PPI activity GR80, SASKR [1]: 300 g/ha | Pre-emergence activity (GR80) DIGSA [8]: 300 g/ha | Pre-emergence activity GR80, POLCO [5]: 300 g/ha | Pre-emergence activity GR80, VERPE [7]: 300 g/ha

CCN(CC)C(=O)n1cnc(S(=O)(=O)C(F)(F)C(F)(F)SC)n1 [Example 14]
Pre-emergence activity (GR80) DIGSA [8]: 100 g/ha | Post-emergence activity GR80, LOLMG [2]: [empty] | Post-emergence activity GR80, AGSST [4]: 300 g/ha | Pre-emergence activity GR80, POLCO [5]: 300 g/ha | Post-emergence activity GR80, AEGCY [6]: [empty] | Pre-emergence activity GR80, VERPE [7]: 300 g/ha

CCN(CC)C(=O)n1cnc(S(=O)(=O)C(F)(F)C(F)F)n1 [Example 16]
PPI activity GR80, SASKR [1]: 30 g/ha | Percent inhibition SASKR ([1]; 10 g/ha): 65% | Percent inhibition SASKR ([1]; 30 g/ha): 90% | Percent inhibition SASKR ([1]; 100 g/ha): 80% | Percent inhibition SASKR ([1]; 300 g/ha): 80% | Percent inhibition SASKR ([1]; 900 g/ha): 100% | Pre-emergence activity (GR80) DIGSA [8]: 30 g/ha | Percent inhibition GLYMX ([3]; 10 g/ha): 0% | Percent inhibition GLYMX ([3]; 30 g/ha): 0% | Percent inhibition GLYMX ([3]; 100 g/ha): 10% | Percent inhibition GLYMX ([3]; 300 g/ha): 10% | Percent inhibition GLYMX ([3]; 900 g/ha): 80% | Pre-emergence activity GR80, POLCO [5]: [empty] | Pre-emergence activity GR80, VERPE [7]: 100 g/ha

CCN(CC)C(=O)n1cnc(S(=O)(=O)C(F)(F)C(F)(F)Br)n1 [Example 4]
Percent inhibition SASKR ([1]; 30 g/ha): 75% | Percent inhibition SASKR ([1]; 100 g/ha): 90% | Percent inhibition SASKR ([1]; 300 g/ha): 99% | Percent inhibition SASKR ([1]; 900 g/ha): 100% | Pre-emergence activity (GR80) DIGSA [8]: 100 g/ha | Percent inhibition GLYMX ([3]; 30 g/ha): 0% | Percent inhibition GLYMX ([3]; 100 g/ha): 0% | Percent inhibition GLYMX ([3]; 300 g/ha): 0% | Percent inhibition GLYMX ([3]; 900 g/ha): 10% | Pre-emergence activity GR80, POLCO [5]: 300 g/ha | Pre-emergence activity GR80, VERPE [7]: 10 g/ha

CCN(CC)C(=O)n1cnc(S(=O)(=O)C(F)(F)F)n1 [Example 2]
Percent inhibition SASKR ([1]; 30 g/ha): 50% | Percent inhibition SASKR ([1]; 100 g/ha): 80% | Percent inhibition SASKR ([1]; 300 g/ha): 85% | Percent inhibition SASKR ([1]; 900 g/ha): 100% | Pre-emergence activity (GR80) DIGSA [8]: 300 g/ha | Percent inhibition GLYMX ([3]; 30 g/ha): 0% | Percent inhibition GLYMX ([3]; 100 g/ha): 0% | Percent inhibition GLYMX ([3]; 300 g/ha): 10% | Percent inhibition GLYMX ([3]; 900 g/ha): 20% | Pre-emergence activity GR80, POLCO [5]: [empty] | Pre-emergence activity GR80, VERPE [7]: 10 g/ha

CCN(CC)C(=O)n1cnc(S(=O)(=O)C(F)(F)Cl)n1 [Example 3]
Percent inhibition SASKR ([1]; 30 g/ha): 80% | Percent inhibition SASKR ([1]; 100 g/ha): 80% | Percent inhibition SASKR ([1]; 300 g/ha): 100% | Percent inhibition SASKR ([1]; 900 g/ha): 100% | Pre-emergence activity (GR80) DIGSA [8]: 100 g/ha | Percent inhibition GLYMX ([3]; 30 g/ha): 0% | Percent inhibition GLYMX ([3]; 100 g/ha): 0% | Percent inhibition GLYMX ([3]; 300 g/ha): 0% | Percent inhibition GLYMX ([3]; 900 g/ha): 15% | Pre-emergence activity GR80, POLCO [5]: [empty] | Pre-emergence activity GR80, VERPE [7]: 100 g/ha

CCN(CC)C(=O)n1cnc(S(=O)(=O)C(F)(F)SCCOC)n1 [Example 13]
PPI activity GR80, SASKR [1]: 300 g/ha | Percent inhibition SASKR ([1]; 10 g/ha): 20% | Percent inhibition SASKR ([1]; 30 g/ha): 30% | Percent inhibition SASKR ([1]; 100 g/ha): 80% | Percent inhibition SASKR ([1]; 300 g/ha): 100% | Percent inhibition SASKR ([1]; 900 g/ha): 100% | Post-emergence activity GR80, LOLMG [2]: [empty] | Percent inhibition GLYMX ([3]; 10 g/ha): 0% | Percent inhibition GLYMX ([3]; 30 g/ha): 0% | Percent inhibition GLYMX ([3]; 100 g/ha): 0% | Percent inhibition GLYMX ([3]; 300 g/ha): 30% | Percent inhibition GLYMX ([3]; 900 g/ha): 70% | Post-emergence activity GR80, AGSST [4]: [empty] | Pre-emergence activity GR80, POLCO [5]: [empty] | Post-emergence activity GR80, AEGCY [6]: [empty] | Pre-emergence activity GR80, VERPE [7]: 300 g/ha
